The values that follow come from patent US20250017928A1, “OPHTHALMIC PHARMACEUTICAL COMPOSITIONS CONTAINING A NITRIC OXIDE-RELEASING PHOSPHODIESTERASE 5 INHIBITOR AND METHOD FOR THE PREPARATION THEREOF” (Nicox SA, priority 2021, published 2025).

The series is described as follows: Aqueous solubility of Compound (I) and its salts. The format is physicochemical. The settings on record: aqueous medium; free base. From the text:
In an effort to enhance the solubility of Compound (I) in aqueous vehicle, ‘salt forms’ of Compound (I) were explored.

For `COc1ccc(CNc2nc(N3CCC[C@H]3COC(=O)CCCCCO[N+](=O)[O-])ncc2C(=O)NCc2ncccn2)cc1Cl` [Compound (I), [(2S)-1-(4-{[(3-chloro-4-methoxyphenyl)methyl]amino}-5-{[(pyrimidin-2-yl)methyl]carbamoyl}pyrimidin-2-yl)pyrrolidin-2-yl]methyl 6-(nitrooxy)hexanoate], the solubility came to 13 µg/mL.

For orientation: solubility means the dissolved amount per volume that the medium holds.
